Results from patent US8663653B2, “Efficient cell culture system for hepatitis C virus genotype 2B” (priority 2008, dated 2014).
Entries after “also recorded” stand apart in the source; their conditions may differ.

System: JFH1-based recombinants of genotypes 1a, 1b, 2a, 2b, and 6a
Type: cell-based, hepatitis C virus

| Structure (SMILES) | effect on number of infected cells and supernatant HCV RNA titers |
| --- | --- |
| NC(=O)c1ncn([C@@H]2O[C@H](CO)[C@@H](O)[C@H]2O)n1 [ribavirin] | no apparent effect; also recorded: did not decrease the number of infected cells or supernatant HCV RNA titers |
| NC12CC3CC(CC(C3)C1)C2 [amantadine] | no apparent effect; also recorded: did not decrease the number of infected cells or supernatant HCV RNA titers |
